How the values were obtained:
Assay in all cases: relative viability (nuclei count vs DMSO), 5 days (fraction); higher = more cells survive
NPK76-II-72-1 + AZD7762 = compound: CC1CC(=O)N(C2=CN=C(N=C2N1C3CCCC3)NC4=C(C=C(C=C4)C(=O)NC5CCN(CC5)C)OC)C [NPK76-II-72-1] + NC(=O)Nc1cc(-c2cccc(F)c2)sc1C(=O)N[C@H]1CCCNC1 [AZD7762] (partner 0.2 µM)
In short: (§1)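 Five library-drug doses in √10 steps were combined with a fixed anchor-drug dose, or a single drug was given alone, by pin tool to lung cancer cell lines in 1536-well plates the day after seeding. Nuclei were stained and counted after 5 days. Relative viability is the nuclei count in treated wells over that in vehicle wells, taken as the median of duplicate plates.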

BI-2536 + Phenformin = compound: CC[C@@H]1C(=O)N(C)c2cnc(Nc3ccc(C(=O)NC4CCN(C)CC4)cc3OC)nc2N1C1CCCC1 [BI-2536] + N=C(N)NC(=N)NCCc1ccccc1 [Phenformin] (partner 250 µM)
In short: as §1

[1] = compound: CC1CC(=O)N(C2=CN=C(N=C2N1C3CCCC3)NC4=C(C=C(C=C4)C(=O)NC5CCN(CC5)C)OC)C [NPK76-II-72-1] + Cc1cc(Nc2cc(N3CCN(C)CC3)nc(Sc3ccc(NC(=O)C4CC4)cc3)n2)n[nH]1 [Tozasertib] (partner 0.1 µM)
In short: as §1

[2] = compound: CC1CC(=O)N(C2=CN=C(N=C2N1C3CCCC3)NC4=C(C=C(C=C4)C(=O)NC5CCN(CC5)C)OC)C [NPK76-II-72-1] + Nc1nc2[nH]cc(CCc3ccc(C(=O)N[C@@H](CCC(=O)O)C(=O)O)cc3)c2c(=O)[nH]1 [Pemetrexed] (partner 0.2 µM)
In short: as §1

Cell Line	relative viability (NPK76-II-72-1 + AZD7762; first compound 0.01 µM)	relative viability (NPK76-II-72-1 + AZD7762; first compound 0.03162 µM)	relative viability (NPK76-II-72-1 + AZD7762; first compound 0.1 µM)	relative viability (NPK76-II-72-1 + AZD7762; first compound 0.3162 µM)	relative viability (NPK76-II-72-1 + AZD7762; first compound 1 µM)	relative viability (BI-2536 + Phenformin; first compound 0.01 µM)	relative viability (BI-2536 + Phenformin; first compound 0.03162 µM)	relative viability (BI-2536 + Phenformin; first compound 0.1 µM)	relative viability (BI-2536 + Phenformin; first compound 0.3162 µM)	relative viability (BI-2536 + Phenformin; first compound 1 µM)	relative viability ([1]; first compound 0.01 µM)	relative viability ([1]; first compound 0.03162 µM)	relative viability ([1]; first compound 0.1 µM)	relative viability ([1]; first compound 0.3162 µM)	relative viability ([1]; first compound 1 µM)	relative viability ([2]; first compound 0.01 µM)	relative viability ([2]; first compound 0.03162 µM)	relative viability ([2]; first compound 0.1 µM)	relative viability ([2]; first compound 0.3162 µM)	relative viability ([2]; first compound 1 µM)
LK-2	0.367	0.42	0.439	0.323	0.379	0.473	0.362	0.165	0.15	0.163	0.159	0.195	0.183	0.187	0.213	0.228	0.292	0.334	0.235	0.271
LOU-NH91	0.728	0.744	0.723	0.675	0.798	0.706	0.662	0.583	0.273	0.252	0.688	0.674	0.628	0.576	0.741	0.348	0.402	0.381	0.44	0.35
LU99A	0.425	0.298	0.503	0.248	0.402	0.816	0.823	0.212	0.197	0.2	0.318	0.309	0.309	0.271	0.283	0.181	0.172	0.205	0.163	0.22
LXF-289	1.07	1.12	0.992	1.1	1.08	0.467	0.488	0.159	0.0389	0.039	0.172	0.214	0.181	0.165	0.2	0.885	0.976	0.89	0.892	0.855
NCI-H23	0.249	0.246	0.292	0.286	0.319	0.769	0.781	0.415	0.115	0.122	0.367	0.386	0.35	0.379	0.378	0.52	0.915	0.597	0.71	0.777
NCI-H322M	0.532	0.504	0.52	0.655	0.52	0.76	0.725	0.497	0.341	0.251	0.486	0.509	0.496	0.44	0.534	0.606	0.566	0.601	0.539	0.595
NCI-H358	0.521	0.525	0.611		0.683	0.363	0.172	0.0663	0.0665	0.072	0.108	0.11	0.0907		0.115	0.179	0.186	0.184		0.21
NCI-H441	1.12	1.07	1.08	1.04	1.07	0.805	0.492	0.23	0.217	0.228	0.825	0.659	0.635	0.619	0.721	0.293	0.266	0.246	0.274	0.25
NCI-H460	0.631	0.652	0.666	0.555	0.75	0.524	0.409	0.0506	0.0146	0.0134	0.524	0.529	0.673	0.463	0.597	0.061	0.0655	0.0657	0.0656	0.0639
NCI-H522	0.945	0.826	0.786		0.809	0.525	0.641	0.404	0.446	0.401	0.617	0.443	0.562	0.55	0.54	0.839	0.914	1.01		0.797
NCI-H596	1.13	1.12	1.27	1.15	1.1	0.729	0.737	0.917	0.358	0.245	0.868	1.07	0.832	0.921	1.04	0.522	0.503	0.485	0.482	0.462
NCI-H647	0.4	0.476	0.578	0.434	0.379	0.423	0.349	0.107	0.059	0.0765	0.315	0.283	0.423	0.257	0.325	0.189	0.174	0.171	0.172	0.198
NCI-H650	1.13	0.997	0.97	0.896	0.995	0.462	0.438	0.163	0.154	0.14	0.738	0.778	0.713	0.661	0.796	1.01	0.972	0.879	0.922	0.994
NCI-H838	0.826	0.961	0.947	0.912	0.976	0.571	0.329	0.116	0.116	0.105	0.27	0.248	0.278	0.274	0.288	0.277	0.251	0.263	0.237	0.245
NCI-H1355	0.686	0.792	0.857	0.767	0.748	0.427	0.408	0.219	0.193	0.196	0.534	0.582	0.605	0.543	0.609	1.02	1	0.99	0.972	1.06
NCI-H1395	0.388	0.341	0.4	0.396	0.387	0.439	0.444	0.293	0.279	0.316	0.726	0.822	0.72	0.767	0.759	1.02	0.842	0.972	0.856	0.881

Source: the supplement of paper PMC10307832
